Molecules are shown by their SMILES. The source made the active and inactive calls. No cut-off for these calls is given here.

For one data set, the system named is COLO 320DM. Briefly: Antiproliferative activity against human COLO320DM cells assessed inhibition of cell growth measured after 5 days by MTT assay. Particulars: 120 h. Format: functional. A general note: Formazan colour is commonly taken as a measure of viable cells.
Data set [1] concerns the target Tankyrase 1/2 (Homo sapiens) (UniProt Q9H2K2+O95271). The data set can be described thus: Inhibition of TNKS/TNKS2-mediated WNT/beta-catenin signaling pathway in human COLO320DM cells assessed as upregulation of AXIN2 expression at 0.1 uM measured after 16 hrs by Western blot analysis relative to control. Format: cell-based. Background: In western blotting, separated proteins are transferred to a membrane and probed.

The nature of data set [2]: Half life in ICR mouse at 20 mg/kg, ip. Format: ADME, organism-based. Particulars: in vivo.
For data set [3], the system named is Mus musculus. The data set can be described thus: In vivo inhibition of TNSK/TNSK2-medited WNT/beta-catenin signaling in human COLO320DM cells xenografted Prkdc-NOD-SCID CB17 mouse assessed as upregulation of AXIN2 expression in tumor cytosolic extract at 10 to 20 mg/kg, po administered twice daily for 5 days followed by 2 days interval for 2 cycles measured 4 hrs post-last dose by Western blot analysis. Format: functional, organism-based. In general terms: Xenograft models place foreign cells or tissue in a host animal.

Data set [4] can be described thus: Volume of distribution at steady state in Sprague-Dawley rat at 3 mg/kg, iv. Format: ADME, organism-based. Particulars: in vivo, read-out: Vdss.
For another data set, the target named is Cytochrome P450 2D6 (Homo sapiens, UniProt P10635). The data set can be described thus: Inhibition of CYP2D6 in human liver microsomes using bufuralol as substrate preincubated for 5 mins followed by NADPH addition and measured for 10 to 30 mins by LC-MS/MS analysis. Format: ADME.
A short description of data set [5]: Plasma concentration in human COLO320DM cells xenografted Prkdc-NOD-SCID CB17 mouse at 10 mg/kg, po administered twice daily for 5 days followed by 2 days interval for 2 cycles measured 4 hrs post-last dose. Format: ADME, organism-based.
The nature of data set [6]: AUC (infinity) in Sprague-Dawley rat at 3 mg/kg, po. Format: ADME, organism-based. The arrangement: dose 3 mg/kg, time infinity, route oral. Particulars: in vivo.
Data set [7] is described as follows: Half life in Sprague-Dawley rat at 3 mg/kg, iv. Format: ADME, organism-based. Particulars: in vivo.
The nature of data set [8]: Cmax in Sprague-Dawley rat at 3 mg/kg, po. Particulars: in vivo. The arrangement: dose 3 mg/kg, route oral. Format: ADME, organism-based.
Data set [9] can be described thus: Plasma concentration in human COLO320DM cells xenografted Prkdc-NOD-SCID CB17 mouse at 20 mg/kg, po administered twice daily for 5 days followed by 2 days interval for 2 cycles measured 4 hrs post-last dose. Format: ADME, organism-based.
The target in a further data set is T1, Cytochrome P450 2B6 (Homo sapiens, UniProt P20813).
T1 sequence (P20813 whole entry): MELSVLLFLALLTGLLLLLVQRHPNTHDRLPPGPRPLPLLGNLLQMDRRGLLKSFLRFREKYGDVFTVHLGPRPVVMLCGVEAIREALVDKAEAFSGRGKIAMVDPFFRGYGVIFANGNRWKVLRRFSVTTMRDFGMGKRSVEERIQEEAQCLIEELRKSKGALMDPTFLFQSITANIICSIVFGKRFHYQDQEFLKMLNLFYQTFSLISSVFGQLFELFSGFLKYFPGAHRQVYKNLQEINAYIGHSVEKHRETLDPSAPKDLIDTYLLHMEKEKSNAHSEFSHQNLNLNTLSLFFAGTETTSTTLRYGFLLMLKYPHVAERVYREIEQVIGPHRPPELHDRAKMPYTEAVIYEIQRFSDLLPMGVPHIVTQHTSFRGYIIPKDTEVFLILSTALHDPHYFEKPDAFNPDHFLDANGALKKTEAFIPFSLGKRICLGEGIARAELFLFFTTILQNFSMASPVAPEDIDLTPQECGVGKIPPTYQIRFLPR
Briefly: Inhibition of CYP2B6 in human liver microsomes using bupropion as substrate preincubated for 5 mins followed by NADPH addition and measured for 10 to 30 mins by LC-MS/MS analysis. Format: ADME.

In data set [10] the test system is Mus musculus. The data set can be described thus: In vivo inhibition of TNSK/TNSK2-medited WNT/beta-catenin signaling in human COLO320DM cells xenografted Prkdc-NOD-SCID CB17 mouse assessed as reduction in active-beta catenin expression in tumor nuclear extract at 10 to 20 mg/kg, po administered twice daily for 5 days followed by 2 days interval for 2 cycles measured 4 hrs post-last dose by Western blot analysis. Format: functional, organism-based.

The next data set relates to RKO. The data set can be described thus: Antiproliferative activity against human RKO cells assessed inhibition of cell growth measured after 5 days by MTT assay. Format: functional. Particulars: 120 h.
Data set [11] can be described thus: Toxicity in human COLO320DM cells xenografted Prkdc-NOD-SCID CB17 mouse assessed as loss of body weight at 50 mg/kg, ip administered twice daily for 5 days followed by 2 days interval for 2 cycles. Particulars: in vivo.
The nature of data set [12]: Total clearance in Sprague-Dawley rat at 3 mg/kg, iv. Particulars: in vivo. Format: ADME, organism-based.
Data set [13] addresses T2, Protein mono-ADP-ribosyltransferase PARP10 (Homo sapiens, UniProt Q53GL7).
T2 sequence (Q53GL7 whole entry): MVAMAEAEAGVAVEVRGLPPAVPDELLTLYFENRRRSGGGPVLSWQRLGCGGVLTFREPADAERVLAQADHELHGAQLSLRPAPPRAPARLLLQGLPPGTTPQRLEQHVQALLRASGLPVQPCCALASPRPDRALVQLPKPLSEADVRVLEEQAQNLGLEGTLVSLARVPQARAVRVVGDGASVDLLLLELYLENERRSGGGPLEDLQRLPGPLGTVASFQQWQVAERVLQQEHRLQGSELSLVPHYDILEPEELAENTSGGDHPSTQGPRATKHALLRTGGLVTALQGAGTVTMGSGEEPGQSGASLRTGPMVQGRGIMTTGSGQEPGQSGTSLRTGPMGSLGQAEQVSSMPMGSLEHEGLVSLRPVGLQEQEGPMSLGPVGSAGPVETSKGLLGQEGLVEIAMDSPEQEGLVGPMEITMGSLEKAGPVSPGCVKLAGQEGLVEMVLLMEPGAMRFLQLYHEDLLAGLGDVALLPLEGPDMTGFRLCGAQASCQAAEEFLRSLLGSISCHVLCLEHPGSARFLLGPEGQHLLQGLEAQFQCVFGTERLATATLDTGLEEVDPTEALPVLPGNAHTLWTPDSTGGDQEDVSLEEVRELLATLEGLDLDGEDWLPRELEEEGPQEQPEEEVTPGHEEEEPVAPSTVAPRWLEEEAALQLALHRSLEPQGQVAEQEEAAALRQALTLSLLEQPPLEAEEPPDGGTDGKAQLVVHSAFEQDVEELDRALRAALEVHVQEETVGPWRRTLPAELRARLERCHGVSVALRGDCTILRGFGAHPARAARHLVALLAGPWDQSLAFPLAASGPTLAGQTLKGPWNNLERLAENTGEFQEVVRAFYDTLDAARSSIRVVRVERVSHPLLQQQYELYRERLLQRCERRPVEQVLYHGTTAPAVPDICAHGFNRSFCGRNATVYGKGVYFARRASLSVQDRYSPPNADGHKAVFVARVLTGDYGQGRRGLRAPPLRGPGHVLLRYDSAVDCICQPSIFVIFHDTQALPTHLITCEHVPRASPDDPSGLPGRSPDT
Briefly: Inhibition of human recombinant N-terminal TEV-cleavgae site-fused-FLAG/Polyhis-tagged PARP10 […] expressed in Escherichia coli assessed as reduction in auto-PARylation using histone as substrate measured after 45 mins in presence of biotinylated-NAD+ by ELISA.

Tankyrase 1/2 (Homo sapiens), sequence (O95271 whole entry, looked up): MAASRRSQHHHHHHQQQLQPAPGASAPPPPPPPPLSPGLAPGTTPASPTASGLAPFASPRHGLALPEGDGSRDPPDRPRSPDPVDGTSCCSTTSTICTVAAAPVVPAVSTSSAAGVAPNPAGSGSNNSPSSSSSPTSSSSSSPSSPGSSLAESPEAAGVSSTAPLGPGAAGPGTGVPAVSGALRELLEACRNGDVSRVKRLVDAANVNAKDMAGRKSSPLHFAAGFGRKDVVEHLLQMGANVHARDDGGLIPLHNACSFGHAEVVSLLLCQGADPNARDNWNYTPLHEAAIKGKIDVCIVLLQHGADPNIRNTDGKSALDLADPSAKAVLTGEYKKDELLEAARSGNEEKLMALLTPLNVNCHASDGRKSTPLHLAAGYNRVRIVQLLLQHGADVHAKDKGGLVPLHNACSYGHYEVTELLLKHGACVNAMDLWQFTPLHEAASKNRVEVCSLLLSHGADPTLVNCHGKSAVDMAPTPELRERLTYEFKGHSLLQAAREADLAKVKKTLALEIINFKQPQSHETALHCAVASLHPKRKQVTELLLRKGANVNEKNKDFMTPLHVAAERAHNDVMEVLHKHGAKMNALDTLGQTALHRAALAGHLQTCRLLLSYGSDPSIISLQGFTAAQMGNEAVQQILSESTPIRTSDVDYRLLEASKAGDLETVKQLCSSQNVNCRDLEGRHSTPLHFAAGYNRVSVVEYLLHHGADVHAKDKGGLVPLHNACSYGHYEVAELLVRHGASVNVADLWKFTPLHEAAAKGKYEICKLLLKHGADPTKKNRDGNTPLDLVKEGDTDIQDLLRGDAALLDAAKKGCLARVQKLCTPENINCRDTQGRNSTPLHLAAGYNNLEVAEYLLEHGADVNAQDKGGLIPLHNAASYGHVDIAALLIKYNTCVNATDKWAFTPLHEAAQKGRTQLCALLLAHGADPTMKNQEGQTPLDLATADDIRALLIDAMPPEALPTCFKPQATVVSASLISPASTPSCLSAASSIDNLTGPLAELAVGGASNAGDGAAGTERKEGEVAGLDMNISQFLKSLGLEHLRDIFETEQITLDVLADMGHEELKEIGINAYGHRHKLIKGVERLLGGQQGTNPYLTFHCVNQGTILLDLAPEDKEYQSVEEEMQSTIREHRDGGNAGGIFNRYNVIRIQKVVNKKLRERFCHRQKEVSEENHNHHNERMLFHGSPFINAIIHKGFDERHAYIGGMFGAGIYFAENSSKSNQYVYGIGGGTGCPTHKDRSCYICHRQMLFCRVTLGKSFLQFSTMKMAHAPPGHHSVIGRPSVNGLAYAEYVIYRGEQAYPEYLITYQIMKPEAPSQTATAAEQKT
Tankyrase 1/2 (Homo sapiens), sequence (Q9H2K2 whole entry, looked up): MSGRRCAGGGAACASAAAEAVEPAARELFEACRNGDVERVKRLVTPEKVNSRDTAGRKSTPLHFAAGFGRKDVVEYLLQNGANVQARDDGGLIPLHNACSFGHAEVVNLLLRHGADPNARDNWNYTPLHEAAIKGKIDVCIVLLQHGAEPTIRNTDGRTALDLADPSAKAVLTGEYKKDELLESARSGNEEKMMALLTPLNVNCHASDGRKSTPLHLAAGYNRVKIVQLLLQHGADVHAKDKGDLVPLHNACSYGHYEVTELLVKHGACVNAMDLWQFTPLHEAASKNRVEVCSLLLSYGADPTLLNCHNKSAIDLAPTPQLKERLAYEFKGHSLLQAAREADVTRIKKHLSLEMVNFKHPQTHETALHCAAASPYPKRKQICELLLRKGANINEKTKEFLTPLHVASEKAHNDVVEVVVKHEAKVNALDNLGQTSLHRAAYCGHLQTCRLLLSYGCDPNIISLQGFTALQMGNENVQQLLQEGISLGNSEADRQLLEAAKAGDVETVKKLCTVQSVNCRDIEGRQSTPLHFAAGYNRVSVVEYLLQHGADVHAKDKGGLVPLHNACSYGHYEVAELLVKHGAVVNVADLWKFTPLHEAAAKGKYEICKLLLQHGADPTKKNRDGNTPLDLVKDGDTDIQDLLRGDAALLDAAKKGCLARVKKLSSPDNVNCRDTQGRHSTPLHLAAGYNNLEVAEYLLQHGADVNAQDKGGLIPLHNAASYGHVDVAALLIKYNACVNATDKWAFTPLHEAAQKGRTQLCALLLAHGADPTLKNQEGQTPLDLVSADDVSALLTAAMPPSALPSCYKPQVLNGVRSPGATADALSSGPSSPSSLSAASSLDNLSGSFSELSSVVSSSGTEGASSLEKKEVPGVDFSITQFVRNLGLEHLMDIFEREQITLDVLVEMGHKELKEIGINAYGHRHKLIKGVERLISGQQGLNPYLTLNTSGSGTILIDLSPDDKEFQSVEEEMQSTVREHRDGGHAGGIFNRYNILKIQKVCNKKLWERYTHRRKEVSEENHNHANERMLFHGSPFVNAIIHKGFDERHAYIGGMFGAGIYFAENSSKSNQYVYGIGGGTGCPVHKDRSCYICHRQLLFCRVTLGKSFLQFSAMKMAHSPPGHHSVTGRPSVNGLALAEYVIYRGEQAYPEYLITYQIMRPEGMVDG
Cytochrome P450 2D6, sequence (P10635 whole entry): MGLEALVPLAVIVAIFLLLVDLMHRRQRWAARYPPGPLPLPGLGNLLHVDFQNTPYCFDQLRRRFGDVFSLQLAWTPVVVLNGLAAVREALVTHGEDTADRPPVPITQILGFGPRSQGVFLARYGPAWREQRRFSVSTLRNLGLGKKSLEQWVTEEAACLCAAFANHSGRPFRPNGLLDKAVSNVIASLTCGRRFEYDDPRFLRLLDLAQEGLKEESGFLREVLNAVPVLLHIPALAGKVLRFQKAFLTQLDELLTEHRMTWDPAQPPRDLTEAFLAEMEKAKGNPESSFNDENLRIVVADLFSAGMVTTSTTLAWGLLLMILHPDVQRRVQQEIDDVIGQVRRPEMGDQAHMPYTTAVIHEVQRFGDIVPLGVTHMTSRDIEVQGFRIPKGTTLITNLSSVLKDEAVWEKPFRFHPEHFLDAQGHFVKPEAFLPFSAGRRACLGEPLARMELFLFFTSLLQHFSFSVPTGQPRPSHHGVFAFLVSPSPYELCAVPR

As a reminder, the GI50 is the concentration giving 50% growth inhibition. High values mean less potent growth inhibition, low ones more potent growth inhibition. As a reminder, the half-life is the time in which the quantity being followed falls by half. The IC50 is the concentration at which inhibition is half-maximal. The AUC(0-inf) is total exposure, with the tail of the curve extrapolated. A high value points to high exposure. For orientation: Cmax means the highest concentration seen after dosing. One may read the clearance as the rate of elimination divided by the concentration. A lower clearance goes with a low capacity for elimination. With `C[C@@H]1CN(c2cc(F)c3c(c2)N(C)C(=O)C32CCN(c3nc4c(c(=O)[nH]3)CCCN4C)CC2)C[C@H](C)O1`, the values for the GI50 with COLO 320DM and with RKO were 0.035 µM and over 10 µM, respectively. Moreover, the fold change (FC) in data set [1] came to 5.23. Further, the half-life in [2] is 2.8 h; in [7] it was 3.61 h. The inhibition entry in the data set on Mus musculus [3] and in the data set with Mus musculus [10] was “Active” in each case. Moreover, the Vd in [4] was 1.02 L/kg. The figures for the IC50 (against Cytochrome P450 2D6; on Cytochrome P450 2B6; in data set [13]) were over 10 µM, over 10 µM and 8.05 µM, respectively. For the same compound, the concentration at 4 h came to 10.1 µM in [5] and 23.3 µM in [9]. Besides, the AUC(0-inf) in data set [6] worked out at 33 µM·h. For the same compound, in data set [8], the concentration peaked (Cmax) at 12.7 µM. For the same compound, the Ratio IC50 in the data set listed under Homo sapiens is 504. Besides, in [11], the Activity entry is on record as “Toxic”. Also, in [12], the clearance was 3.17 mL/min/kg.

The values are drawn from ChEMBL document CHEMBL4342498, “Design and Discovery of an Orally Efficacious Spiroindolinone-Based Tankyrase Inhibitor for the Treatment of Colon Cancer” (J Med Chem, 2020).
